pEC50: −log10 of the molar value. Like-named read-outs stand apart in the source and are kept apart here.

In experiment [1] the test system is stable HCV 1b RLuc replicon cells (dicistronic genotype 1b Con1 replicon). Description: Renilla luciferase HCV replicon reporter assay, genotype 1b. Conditions: Hepatitis C virus, 72 h, stable 1b Con1 RLuc replicon cells, 72 hours; read-out: 1b. The format is cell-based. The essentials:
(§1)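 First, 3-fold serial dilutions of compound went onto replicon cells, DMSO serving as no-inhibition control and ITMN-191 at >100×EC50 as positive control. Next came 72 h incubation, lysis and Renilla luciferase measurement. Finally, EC50 was calculated by non-linear regression; replicons covered genotypes 1a H77, 1b Con1, 2a JFH-1 (L31) and J6-NS5A chimera (M31).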
(In general: A replicon is a self-replicating genome or part of one, used to study replication in cells.)

Experiment [2] concerns stable HCV 1a RLuc replicon cells (dicistronic genotype 1a H77 replicon). In words: Renilla luciferase HCV replicon reporter assay, genotype 1a. The format is cell-based. The following applies: Hepatitis C virus, 72 h, stable 1a H77 RLuc replicon cells. The essentials: as §1
Experiment [3] has as its system stable HCV 2a JFH-1 Rluc replicon cells (L31 present in NS5A). In words: Renilla luciferase HCV replicon reporter assay, genotype 2a JFH-1. It counts as cell-based. The following applies: Hepatitis C virus; for EC50: read-out: 2a JFH (nM), genotype 2a JFH-1 replicon (L31 in NS5A), stable cells; for pEC50: read-out: 2a JFH, stable 2a JFH-1 Rluc replicon cells, L31 in NS5A, activity range. The essentials:
as §1

Experiment [4] has as its system NS5A chimeric genotype 2a JFH-1 replicon with genotype 2a J6 strain NS5A gene (M31 present). Description: Replicon assay, genotype 2a J6 NS5A chimera. The format is cell-based, HCV. The following applies: Hepatitis C virus; for EC50: read-out: 2a J6 (t) (nM), genotype 2a J6 NS5A chimeric replicon (M31), transiently transfected (t) into Huh-Lunet cells; for pEC50: read-out: 2a J6 (t), transiently transfected (t) into Huh-Lunet cells, activity range. The method, boiled down: (§2)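 EC50 was fitted by non-linear regression to Renilla luciferase signal after 72 h of exposure to 3-fold serially diluted compound (10 mM DMSO stocks). Controls were DMSO (none) and ITMN-191 above 100×EC50 (full). Chimeric 2a replicons were used either stable or transiently transfected into Huh-Lunet cells.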

In experiment [5] the test system is NS5A chimeric genotype 2a JFH-1 replicon with genotype 2b MD2b-1 strain NS5A gene (M31 present). Description: Replicon assay, genotype 2b NS5A chimera. Conditions: Hepatitis C virus; for pEC50: 2BS, read-out: 2b (s), stably replicating replicon cells (s), activity range; for EC50: read-out: 2b (s) (nM), genotype 2b MD2b-1 NS5A chimeric replicon (M31), stably replicating replicon cells (s). It counts as cell-based, HCV. The method, boiled down:
as §2

Experiment [6] relates to NS5A chimeric genotype 1b Con1 replicon with genotype 3a S52 strain NS5A gene. Description: Replicon assay, genotype 3a NS5A chimera. Conditions: Hepatitis C virus; for EC50: read-out: 3a (s) (nM), genotype 3a NS5A chimeric replicon, stable replicon cells (s); for pEC50: read-out: 3a (s), (s), activity range. The format is cell-based, HCV.
For experiment [7], the system named is NS5A chimeric genotype 1b Con1 replicon with genotype 4a ED43 strain NS5A gene. In words: Replicon assay, genotype 4a NS5A chimera. It counts as cell-based, HCV. The following applies: Hepatitis C virus; for EC50: read-out: 4a (s) (nM), genotype 4a NS5A chimeric replicon, stable replicon cells (s); for pEC50: read-out: 4a (s), (s), activity range.

Take `COC(=O)N[C@H](C(=O)N1[C@@H](C)CC[C@H]1c1nc2ccc3cc4c(cc3c2[nH]1)OCc1cc(-c2cnc([C@@H]3C[C@H](F)CN3C(=O)[C@@H](NC(=O)OC)C3CCOCC3)[nH]2)ccc1-4)C(C)C` [HT]: the pEC50 is 9.96 in experiment [1]; 10.15 in experiment [2]; greater than 10.00 in experiment [2] (activity range); greater than 10.00 in experiment [3]; 9.00 to 10.00 in experiment [4]; 7.36 to 9.00 in experiment [5]. Besides, the pEC50 in experiment [6] and in experiment [7] was greater than 10.00 each time. For the same molecule, the EC50 in experiment [3] stood at 0.051 nM; in experiment [4], 0.778 nM; in experiment [5] it was 1.35 nM; in experiment [6], 0.075 nM; in experiment [7] it was 0.03 nM.

Regarding `COC(=O)N[C@H](C(=O)N1[C@@H](C)CC[C@H]1c1nc2ccc3cc4c(cc3c2[nH]1)OCc1cc(-c2cnc([C@@H]3C[C@H](F)CN3C(=O)[C@@H](NC(=O)OC)[C@@H](C)OC)[nH]2)ccc1-4)C(C)C` [HU], the pEC50 was 10.26 in experiment [1]; 10.80 in experiment [2]; greater than 10.00 in experiment [2] (activity range); greater than 10.00 in experiment [3]; 7.36 to 9.00 in experiment [4]; 7.36 to 9.00 in experiment [5]. Also, the pEC50 in experiment [6] and in experiment [7] was greater than 10.00 throughout. The EC50 in experiment [3] turned out to be 0.026 nM; in experiment [4], 3.17 nM; in experiment [5], 3.56 nM; in experiment [6] it was 0.083 nM; in experiment [7], 0.012 nM.

`COC(=O)N[C@H](C(=O)N1[C@@H](C)CC[C@H]1c1ncc(-c2ccc3c(c2)COc2cc4c(ccc5nc([C@@H]6CC[C@H](C)N6C(=O)[C@@H](NC(=O)OC(C)(C)C)C(C)(C)O)[nH]c54)cc2-3)[nH]1)C(C)C` [HV]: the pEC50 was 10.04 in experiment [1]; 8.44 in experiment [2]; 7.36 to 9.00 in experiment [2] (activity range); 7.36 to 9.00 in experiment [3]; less than 7.36 in experiment [4]; less than 7.36 in experiment [5]. Further, the pEC50 in experiment [6] and in experiment [7] was 7.36 to 9.00 each time. The EC50 in experiment [3] was 1.87 nM; in experiment [4] it was no less than 44.4 nM; in experiment [5] it was no less than 44.4 nM; in experiment [6], 12.6 nM; in experiment [7], 1.27 nM.

As for `COC(=O)N[C@H](C(=O)N1[C@@H](C)CC[C@H]1c1ncc(-c2ccc3c(c2)COc2cc4c(ccc5nc([C@@H]6CC[C@H](C)N6C(=O)[C@@H](NC(=O)OC)[C@H](C)O)[nH]c54)cc2-3)[nH]1)C(C)C` [HW], the pEC50 in experiment [1] is 10.18; in experiment [2], 10.25; in experiment [2] (activity range) it was greater than 10.00; in experiment [3], greater than 10.00; in experiment [4], 7.36 to 9.00; in experiment [5], 7.36 to 9.00. The pEC50 in experiment [6] and in experiment [7] was greater than 10.00 in each case. Besides, the EC50 in experiment [3] is 0.047 nM; in experiment [4], 1.1 nM; in experiment [5], 1.79 nM; in experiment [6], 0.085 nM; in experiment [7], 0.021 nM.

Consider `COC(=O)N[C@H](C(=O)N1C[C@@H](C)C[C@H]1c1nc2ccc3cc4c(cc3c2[nH]1)OCc1cc(-c2cnc([C@@H]3CC[C@H](C)N3C(=O)[C@@H](NC(=O)OC)C(C)(C)C)[nH]2)ccc1-4)C(C)C` [HX], for which the pEC50 is 10.70 in experiment [1]; 10.96 in experiment [2]; greater than 10.00 in experiment [2] (activity range); greater than 10.00 in experiment [3]; 7.36 to 9.00 in experiment [4]; 7.36 to 9.00 in experiment [5]. Besides, the pEC50 in experiment [6] was 9.00 to 10.00; in experiment [7] it was greater than 10.00. Besides, the EC50 was 0.027 nM in experiment [3]; 3.28 nM in experiment [4]; 2.92 nM in experiment [5]; 0.266 nM in experiment [6]; 0.014 nM in experiment [7].

For `CC[C@H]1CC[C@@H](c2ncc(-c3ccc4c(c3)COc3cc5c(ccc6nc([C@@H]7C[C@H](C)CN7C(=O)[C@@H](NC(=O)OC)C7CCOCC7)[nH]c65)cc3-4)[nH]2)N1C(=O)[C@@H](NC(=O)OC)C(C)C` [HZ], the pEC50 was 10.60 in experiment [1]; 10.92 in experiment [2]; greater than 10.00 in experiment [2] (activity range); greater than 10.00 in experiment [3]; greater than 10.00 in experiment [4]; greater than 10.00 in experiment [5]. For the same molecule, the pEC50 in experiment [6] is 9.00 to 10.00; in experiment [7] it was greater than 10.00. The EC50 in experiment [3] is 0.014 nM; in experiment [4], 0.023 nM; in experiment [5], 0.073 nM; in experiment [6], 0.14 nM; in experiment [7] it was 0.012 nM.

Regarding `COC(=O)N[C@H](C(=O)N1[C@@H](C)CC[C@H]1c1nc2ccc3cc4c(cc3c2[nH]1)OCc1cc(-c2cnc([C@@H]3C[C@@H]5CCC[C@@H]5N3C(=O)[C@@H](NC(=O)OC)C3CCOCC3)[nH]2)ccc1-4)C(C)C` [IB], the pEC50 is 10.49 in experiment [1]; 10.68 in experiment [2]; greater than 10.00 in experiment [2] (activity range); greater than 10.00 in experiment [3]; greater than 10.00 in experiment [4]; 9.00 to 10.00 in experiment [5]. The pEC50 in experiment [6] and in experiment [7] was greater than 10.00 in each case. Also, the EC50 in experiment [3] worked out at 0.027 nM; in experiment [4], 0.05 nM; in experiment [5], 0.129 nM; in experiment [6] it was 0.077 nM; in experiment [7] it was 0.026 nM.

In the case of `CC[C@H]1CC[C@@H](c2ncc(-c3ccc4c(c3)COc3cc5c(ccc6nc([C@@H]7C[C@H](C)CN7C(=O)[C@@H](NC(=O)OC)C(C)C)[nH]c65)cc3-4)[nH]2)N1C(=O)[C@@H](NC(=O)OC)C1CCOCC1` [IC], the pEC50 in experiment [1] is 10.57; in experiment [2] it was 10.62; in experiment [2] (activity range), greater than 10.00; in experiment [3], greater than 10.00; in experiment [4], greater than 10.00; in experiment [5] it was 9.00 to 10.00. Further, the values for the pEC50 in experiment [6] and in experiment [7] were 9.00 to 10.00 and greater than 10.00, respectively. For the same molecule, the EC50 was 0.02 nM in experiment [3]; 0.052 nM in experiment [4]; 0.122 nM in experiment [5]; 0.116 nM in experiment [6]; 0.012 nM in experiment [7].

Turning to `COC(=O)N[C@H](C(=O)N1[C@@H](C)CC[C@H]1c1ncc(-c2ccc3c(c2)COc2cc4c(ccc5nc([C@@H]6CC[C@H](C(C)C)N6C(=O)[C@@H](NC(=O)OC)C6CCOCC6)[nH]c54)cc2-3)[nH]1)C(C)C` [ID], the pEC50 is 10.42 in experiment [1]; 10.46 in experiment [2]; greater than 10.00 in experiment [2] (activity range); greater than 10.00 in experiment [3]; 9.00 to 10.00 in experiment [4]; 7.36 to 9.00 in experiment [5]. Also, the pEC50 in experiment [6] was 9.00 to 10.00; in experiment [7], greater than 10.00. Moreover, the EC50 in experiment [3] is 0.051 nM; in experiment [4], 0.953 nM; in experiment [5], 1.81 nM; in experiment [6], 0.801 nM; in experiment [7], 0.026 nM.

In the case of `CC[C@H]1CC[C@@H](c2nc3ccc4cc5c(cc4c3[nH]2)OCc2cc(-c3cnc([C@@H]4CC[C@H](C)N4C(=O)[C@@H](NC(=O)OC)C(C)C)[nH]3)ccc2-5)N1C(=O)[C@@H](NC(=O)OC)C(C)C` [IF], the pEC50 in experiment [1] is 10.68; in experiment [2], 10.80; in experiment [2] (activity range), greater than 10.00; in experiment [3], greater than 10.00; in experiment [4] it was 9.00 to 10.00; in experiment [5] it was 9.00 to 10.00. Further, the pEC50 in experiment [6] was 9.00 to 10.00; in experiment [7] it was greater than 10.00. Further, the EC50 was found to be 0.026 nM in experiment [3]; 0.84 nM in experiment [4]; 0.691 nM in experiment [5]; 0.35 nM in experiment [6]; 0.017 nM in experiment [7].

In the case of `CC[C@H]1CC[C@@H](c2nc3ccc4cc5c(cc4c3[nH]2)OCc2cc(-c3cnc([C@@H]4CC[C@H](C)N4C(=O)[C@@H](NC(=O)OC)C(C)C)[nH]3)ccc2-5)N1C(=O)[C@H](NC(=O)OC)c1ccccc1` [IH], the pEC50 in experiment [1] was 10.68; in experiment [2], 10.70; in experiment [2] (activity range), greater than 10.00; in experiment [3] it was greater than 10.00; in experiment [4], 9.00 to 10.00; in experiment [5], 9.00 to 10.00. The pEC50 in experiment [6] and in experiment [7] was greater than 10.00 in each case. The EC50 stood at 0.024 nM in experiment [3]; 0.514 nM in experiment [4]; 0.194 nM in experiment [5]; 0.052 nM in experiment [6]; 0.016 nM in experiment [7].

The values are drawn from patent US10800789B2, “Antiviral compounds” (Gilead Pharmasset LLC, priority 2012, dated 2020).
